This note sets out measurements from patent publication US10220025B1, “Self-emulsifying formulation of CARP-1 functional mimetics” (Florida A&M University, priority 2016, dated 2019).

Read-outs that look alike come from different tables or passages of the source.

One assay deals with TNBC cells. The assay can be described thus: MTT viability assay, parental TNBC cells (lines not singled out). The assay is classed as cell-based. For orientation: Formazan colour is commonly taken as a measure of viable cells.
The subject of assay [1] is Adriamycin-resistant (ADR-R) MDA-MB-468 sublines. Kind of assay: MTT viability assay, ADR-resistant MDA-MB-468 sublines. It is filed as cell-based, human. As to the method: (§1) Human TNBC MDA-MB-468 and MDA-MB-231, and mouse TNBC 4T1 cells were cultured in the chronic presence (>10 months) of Doxorubicin. The parental, wild-type cells were initially treated with 200 nM Doxorubicin for 2-3 weeks, followed by escalation to 400 nM, 1 μM, and 2 μM doses over a period of 3-4 weeks for each dose till resistance developed and the cells became well adapted to growth in […] of Doxorubicin for their routine culture. In the case of Cisplatin however, the human TNBC MDA-MB-468 and MDA-MB-231 were initially cultured in continuous presence of 1 μM Cisplatin for 3-4 weeks, and the dose was escalated to 1.5 μM and 3 μM over periods of 3-4 weeks for each dose till resistance developed and cells became adapted to routine culture in 3 μM dose. Subsequent, routine maintenance of the resistant cells in the presence of the respective drug was continued and multiple, resistant sublines for each of the TNBC cells were isolated and characterized for their growth inhibitory (GI)50 dose of respective therapeutic by the MTT-based viability assays as below.

For assay [2], the system named is MDA-MB-468 TNBC cells, wild type. The assay can be described thus: MTT viability assay, parental MDA-MB-468. The assay is classed as cell-based, human. The conditions noted are these: Homo sapiens, MDA-MB-468; 72 h; Wild type.
Experimental: (§2) In vitro inhibition of cell growth was assessed by MTT (3-[4, 5-dimethyltiazol-2-yl]-2.5-diphenyl tetrazolium bromide) reagent. Cells (5×10^3) were seeded in a 96-well culture plate and subsequently treated with respective agents at different concentrations as mentioned. Control cells were treated with 0.1% DMSO in culture medium. After treatment, the cells were incubated with 1 mg/ml of MTT reagent at 37° C. for 2-4 hours and then MTT was removed and 50 μL of DMSO was added, followed by colorimetric analysis using a multi-label plate reader at 560 nm (Victor3; PerkinElmer, Wellesley, Mass., USA).
For assay [3], the system named is Adriamycin-resistant (ADR-R) 4T1 sublines. Kind of assay: MTT viability assay, ADR-resistant 4T1 sublines. The conditions noted are these: Mus musculus; 72 h; ADR-R Clones 1-6. It is filed as cell-based.
Experimental: Human TNBC MDA-MB-468 and MDA-MB-231, and mouse TNBC 4T1 cells were cultured in the chronic presence (>10 months) of Doxorubicin. The parental, wild-type cells were initially treated with 200 nM Doxorubicin for 2-3 weeks, followed by escalation to 400 nM, 1 μM, and 2 μM doses over a period of 3-4 weeks for each dose till resistance developed and the cells became well adapted to growth in 1 μM dose of Doxorubicin for their routine culture. […] Subsequent, routine maintenance of the resistant cells in the presence of the respective drug was continued and multiple, resistant sublines for each of the TNBC cells were isolated and characterized for their growth inhibitory (GI)50 dose of respective therapeutic by the MTT-based viability assays as below.
as §2
Assay [4] deals with CSC-enriched populations from xenografts of parental and ADR-resistant MDA-MB-231 TNBC cells. Kind of assay: MTT viability of tumor-derived CSC-enriched cells. The assay is classed as cell-based, human. Particulars: dose-dependent; FIG. 15C. As to the method: The CSC-enriched cells were then treated with ADR, CFM-4.16, or a combination of both for noted dose and time. The cell viabilities were determined by MTT-based assay as in FIGS. 3A-3C, and plotted relative to the MTT values for the respective untreated controls. The histogram columns in panels B and C represent means of three and four independent experiments, respectively; bars, S.E. α, αα, β, ββ, ^*,**,#,##p=<0.03 relative to respective cells treated with ADR+CFM-4.16.
The TNBC cells were obtained from tumors derived from parental and drug-resistant cells or from a two-dimensional culture plate with ˜70-80% confluence. The cells were washed twice in 1×PBS and trypsinized following established protocols. […]
It was next clarified whether and to the extent CFM-4.16 was able to interfere with growth of mammospheres derived from parental and drug-resistant TNBC-cells. […] The growing mammosphere cultures were then exposed to CFM-4.16, and the viabilities of untreated and treated cultures were determined by an MTT-based assay. […]

Assay [5] concerns drug-resistant TNBC cells. The assay can be described thus: MTT viability assay, drug-resistant TNBC sublines (not singled out). The assay is classed as cell-based. The conditions noted are these: read-out: GI50 dose, doxorubicin-resistant TNBC cells. Here is the method:
as §1

The test system of assay [6] is 4T1 TNBC cells, wild type. Kind of assay: MTT viability assay, parental 4T1. It is filed as cell-based, mouse. The conditions noted are these: Mus musculus; 72 h; Wild type.
Experimental: as §2
Assay [7] relates to Adriamycin-resistant (ADR-R) MDA-MB-231 sublines. Kind of assay: MTT viability assay, ADR-resistant MDA-MB-231 sublines. The assay is classed as cell-based. Particulars: Homo sapiens, 72 h, ADR-R Clones 1-6. As to the method: as §1
For assay [8], the system named is MDA-MB-231 TNBC cells, wild type. The assay can be described thus: MTT viability assay, parental MDA-MB-231. The assay is classed as cell-based, human. Particulars: Homo sapiens, MDA-MB-231; 72 h; Wild type.
Experimental: as §2

The GI50 is the concentration giving 50% growth inhibition.

In the case of `COc1cccc2c1C(=O)c1c(O)c3c(c(O)c1C2=O)C[C@@](O)(C(=O)CO)C[C@@H]3O[C@H]1C[C@H](N)[C@H](O)[C@H](C)O1` [Adriamycin, Doxorubicin, reference compound], the GI50 in the assay with TNBC cells (72 h treatment period, read-out: GI50 doses, both the parental TNBC cell lines) is < 100 nM; in the assay with TNBC cells (read-out: GI50 dose, parental cells), 20 to 100 nM; in assay [1] (Homo sapiens, MDA-MB-468, 72 h, ADR-R Clones 1-6), ~10000 nM; in assay [2] it was ~20 nM; in [3], > 10000 nM; in [5] it was ≥ 10000 nM. For the same molecule, the values for the GI50 in [6], in assay [7] and in assay [8] were ~100 nM, > 10000 nM and < 100 nM, respectively. Besides, in assay [1] (ADR-resistant MDA-MB-468 vs parental), the “GI50 dose higher than wild-type, parental counterparts” value is recorded as ≥ 500 fold. In assay [4], the “viabilities of CSC enriched TNBC cells vs untreated” value is reported as “significant loss of viabilities”.
